Here are results for 45 compounds from US7511061B2, “Triazoles as farnesyl transferase inhibitors” (Janssen Pharmaceutica N.V., priority 1999, dated 2009).

SMILES strings stand for the structures.

For the experiment, the target named is farnesyl protein transferase (FPTase) (Homo sapiens, UniProt P49354+P49356). In words: In vitro assay for inhibition of farnesyl protein transferase. As to conditions: test dose of 10^−7 M. Format: biochemical. The procedure:
An in vitro assay for inhibition of farnesyl transferase was performed essentially as described in WO 98/40383, pages 33-34.
On to `N#Cc1ccc(Cn2cnnc2CN(CCc2ccc(Br)cc2)C(=O)c2ccc3ccccc3c2)cc1` [compound 265], for which the inhibition at 0.1 µM is at least 10%.

`N#Cc1ccc(Cn2cnnc2CN(Cc2ccccc2)C(=O)c2ccc3ccccc3n2)cc1` [compound 232]: the inhibition at 0.1 µM was at least 10%.

On to `N#Cc1ccc(Cn2cnnc2CN(Cc2ccccc2OC(F)(F)F)C(=O)c2ccc3ccccc3n2)cc1` [compound 280], for which the inhibition at 0.1 µM is at least 10%.

Regarding `N#Cc1ccc(Cn2cnnc2CN(Cc2ccco2)C(=O)c2ccc3ccccc3n2)cc1` [compound 247], the inhibition at 0.1 µM is at least 10%.

Compound `Cc1ccc(C(=O)N(Cc2ccc(F)cc2F)Cc2nncn2Cc2ccc(C#N)cc2)cc1-c1ccc(F)c(Cl)c1` [compound 224] returned an inhibition at 0.1 µM of at least 10%.

For the compound `N#Cc1ccc(Cn2cnnc2CN(Cc2ccc(F)cc2F)C(=O)c2ccc(-c3cc(Cl)cc(Cl)c3)o2)cc1` [compound 296], the inhibition at 0.1 µM is at least 10%.

`N#Cc1ccc(Cn2cnnc2CN(Cc2ccc(F)cc2F)C(=O)c2ccc3ccccc3n2)nc1` [compound 295] yielded an inhibition at 0.1 µM of at least 10%.

In the case of `N#Cc1ccc(Cn2cnnc2CN(CCc2ccc(Br)cc2)C(=O)c2ccc3c(c2)OCO3)cc1` [compound 244], the inhibition at 0.1 µM was at least 10%.

In turn, `N#Cc1ccc(Cn2cnnc2CN(Cc2ccc(F)cc2F)C(=O)c2cccc(-c3ccsc3)n2)cc1` [compound 278] showed an inhibition at 0.1 µM of at least 10%.

The compound `Cc1cccc(C(=O)N(Cc2ccc(F)cc2F)Cc2nncn2Cc2ccc(C#N)cc2)c1` [compound 253] displayed an inhibition at 0.1 µM of at least 10%.

Consider `Cc1cccc(Cc2nnc(CN(c3ccc(Oc4ccccc4)cc3)S(=O)(=O)c3ccc(-c4ccc(F)c(Cl)c4)cc3C)n2Cc2cccc(C)n2)n1` [compound 230], for which the inhibition at 0.1 µM was at least 10%.

On to `COc1cc(Cn2cnnc2CN(Cc2ccc(F)cc2F)C(=O)c2ccc3ccccc3n2)ccc1[N+](=O)[O-]` [compound 290], for which the inhibition at 0.1 µM is at least 10%.

For `COc1cc(C(=O)N(CCc2ccc(Br)cc2)Cc2nncn2Cc2ccc(C#N)cc2)nc2ccccc12` [compound 220], the inhibition at 0.1 µM is at least 10%.

On to `N#Cc1ccc(Cn2cnnc2CN(Cc2ccc(F)cc2F)C(=O)c2ccc(-c3cccc(C(F)(F)F)c3)o2)cc1` [compound 292], for which the inhibition at 0.1 µM is at least 10%.

The compound `N#Cc1ccc(Cn2cnnc2CN(Cc2ccc(F)cc2F)C(=O)c2cccc(Br)n2)cc1` [compound 285] yielded an inhibition at 0.1 µM of at least 10%.

In the case of `N#Cc1ccc(Cn2cnnc2CN(Cc2ccc(F)cc2F)C(=O)/C=C/c2cccc(Br)c2)cc1` [compound 241], the inhibition at 0.1 µM is at least 10%.

`N#Cc1ccc(Cn2cnnc2CN(Cc2ccc(F)cc2F)C(=O)/C(=C/c2ccccc2)c2ccccc2)cc1` [compound 266] came in with an inhibition at 0.1 µM of at least 10%.

The compound `N#Cc1ccc(Cn2cnnc2CN(CCc2ccc(Br)cc2)C(=O)c2cccc(Br)c2)cc1` [compound 222] showed an inhibition at 0.1 µM of at least 10%.

Consider `N#Cc1ccc(Cn2cnnc2CN(Cc2ccc(F)cc2)C(=O)c2ccc3ccccc3n2)cc1` [compound 297], for which the inhibition at 0.1 µM was at least 10%.

Compound `Cc1ccccc1-c1cc(C(=O)N(Cc2ccc(F)cc2F)Cc2nncn2Cc2ccc(C#N)cc2)ccc1C` [compound 260] yielded an inhibition at 0.1 µM of at least 10%.

In turn, `N#Cc1ccc(Cn2cnnc2CN(Cc2ccc(F)cc2F)C(=O)c2ccc(Br)s2)cc1` [compound 218] displayed an inhibition at 0.1 µM of at least 10%.

For the compound `N#Cc1ccc(Cn2cnnc2CN(Cc2cc(C(F)(F)F)cc(C(F)(F)F)c2)C(=O)c2ccc3ccccc3n2)cc1` [compound 226], the inhibition at 0.1 µM is at least 10%.

Compound `N#Cc1ccc(Cn2cnnc2CN(CCc2ccc(Cl)cc2)C(=O)c2ccc3ccccc3n2)cc1` [compound 264] showed an inhibition at 0.1 µM of at least 10%.

In turn, `N#Cc1ccc(Cn2cnnc2CN(Cc2ccc(Cl)c(Cl)c2)C(=O)c2ccc3ccccc3n2)cc1` [compound 286] showed an inhibition at 0.1 µM of at least 10%.

The compound `N#Cc1ccc(Cn2cnnc2CN(Cc2ccccc2F)C(=O)c2ccc3ccccc3n2)cc1` [compound 306] yielded an inhibition at 0.1 µM of at least 10%.

Take `N#Cc1ccc(Cn2cnnc2CN(Cc2ccc(F)cc2F)C(=O)/C=C/c2ccccc2Cl)cc1` [compound 249]: the inhibition at 0.1 µM was at least 10%.

Compound `CC1=C(C(=O)N(Cc2ccc(F)cc2F)Cc2nncn2Cc2ccc(C#N)cc2)Cc2ccccc21` [compound 258] gave an inhibition at 0.1 µM of at least 10%.

For `N#Cc1ccc(Cn2cnnc2CN(CCc2ccc(Br)cc2)C(=O)c2ccc3ccccc3n2)cc1` [compound 269], the inhibition at 0.1 µM is at least 10%.

`N#Cc1ccc(Cn2cnnc2CN(Cc2cc(F)cc(F)c2)C(=O)c2ccc3ccccc3n2)cc1` [compound 305] had an inhibition at 0.1 µM of at least 10%.

Compound `COc1ccc(CCN(Cc2nncn2Cc2ccc(C#N)cc2)C(=O)c2ccc3ccccc3n2)cc1` [compound 236] yielded an inhibition at 0.1 µM of at least 10%.

Consider `COc1cc(C(=O)N(Cc2ccc(F)cc2F)Cc2nncn2Cc2ccc(C#N)cc2)nc2ccccc12` [compound 298], for which the inhibition at 0.1 µM was at least 10%.

`N#Cc1ccc(Cn2cnnc2CN(c2ccc(Oc3ccccc3)cc2)c2nccc(C(F)(F)F)n2)cc1` [compound 257]: the inhibition at 0.1 µM is at least 10%.

`COc1ccccc1/C=C/C(=O)N(Cc1ccc(F)cc1F)Cc1nncn1Cc1ccc(C#N)cc1` [compound 267] returned an inhibition at 0.1 µM of at least 10%.

In the case of `N#Cc1ccc(Cn2cnnc2CN(Cc2ccc(Cl)cc2Cl)C(=O)c2ccc3ccccc3n2)cc1` [compound 284], the inhibition at 0.1 µM was at least 10%.

With `Cc1ccc(C(=O)N(Cc2ccc(F)cc2F)Cc2nncn2Cc2ccc(C#N)cc2)cc1-c1cc(Cl)ccc1Cl` [compound 221], the inhibition at 0.1 µM was at least 10%.

In turn, `N#Cc1ccc(Cn2cnnc2CN(CCc2ccc(F)cc2)C(=O)c2ccc3ccccc3n2)cc1` [compound 276] gave an inhibition at 0.1 µM of at least 10%.

`N#Cc1ccc(Cn2cnnc2CN(Cc2cccc(Cl)c2)C(=O)c2ccc3ccccc3n2)cc1` [compound 275] displayed an inhibition at 0.1 µM of at least 10%.

Consider `Cc1ccc(C(=O)N(CCc2ccc(Br)cc2)Cc2nncn2Cc2ccc(C#N)cc2)cc1C` [compound 233], for which the inhibition at 0.1 µM was at least 10%.

Compound `N#Cc1ccc(Cn2cnnc2CN(Cc2c(F)cccc2F)c2ccc(Oc3ccccc3)cc2)cc1` [compound 234] showed an inhibition at 0.1 µM of at least 10%.

For the compound `N#Cc1ccc(Cn2cnnc2CN(Cc2ccc(F)cc2F)C(=O)C2=Cc3ccccc3OC2)cc1` [compound 289], the inhibition at 0.1 µM was at least 10%.

As for `N#Cc1ccc(Cn2cnnc2CN(Cc2ccc(F)cc2F)C(=O)c2ccc3ccccc3c2)cc1` [compound 315], the inhibition at 0.1 µM was at least 10%.

For the compound `N#Cc1ccc(Cn2cnnc2CN(Cc2ccc(F)cc2F)C(=O)c2nc3ccccc3nc2O)cc1` [compound 301], the inhibition at 0.1 µM was at least 10%.

Regarding `N#Cc1ccc(Cn2cnnc2CN(Cc2ccc(F)cc2F)C(=O)c2ccc(Br)o2)cc1` [compound 229], the inhibition at 0.1 µM was at least 10%.

`Cc1nnc(CN(Cc2ccc(F)cc2F)C(=O)c2ccc3ccccc3n2)n1-c1ccc(C#N)cc1` [compound 313] displayed an inhibition at 0.1 µM of at least 10%.

For the compound `N#Cc1ccc(Cn2cnnc2CN(Cc2ccc(C(F)(F)F)cc2)C(=O)c2ccc3ccccc3n2)cc1` [compound 302], the inhibition at 0.1 µM is at least 10%.
